Non-standard residues stand in square brackets, D forms with d. Residues, ends and D or L forms follow the SMILES beside them. d(hArg(Et2)) = CCN=C(NCC)NCCCC[C@@H](N)C(=O)O; hArg(Et2) = CCN=C(NCC)NCCCC[C@H](N)C(=O)O; dPhe(4-Cl) = N[C@H](Cc1ccc(Cl)cc1)C(=O)O; d2Nal = N[C@H](Cc1ccc2ccccc2c1)C(=O)O; dCit = NC(=O)NCCC[C@@H](N)C(=O)O; d3Pal = N[C@H](Cc1cccnc1)C(=O)O
Assays:
Assay type in all cases: in vivo, human
[1] = test system: premature endogenous LH-surge; test: open-label controlled clinical trial: premature endogenous LH-surge prevention in COH; conditions: daily subcutaneous 2.0 mg cetrorelix without recLH
Text: (§1) Although this treatment is suitable for all types of IVF patients (e.g. within the age range 18 to 45 years, with or without displaying polycystic ovarian syndrome and with or without a regular cycle), the following selection criteria are set forth in the investigation: healthy female partners of infertile couples; age at the time of screening between 20 and 39 years; a regular menstrual cycle, and willing to give a written informed consent. However, no special precautions concerning body weight or body mass index are taken.
(§2) Prior to the first administration of recombinant FSH a blood sample is taken for hormone analysis (estradiol and LH) and a standard urinary hCG assay is performed to exclude pregnancy. Recombinant FSH treatment is started at day 2 or 3 of menses by a daily subcutaneous injection until the day of hCG administration. During the first 5 days of recombinant FSH treatment the daily dose is fixed to 150 IU. […]
(§3) A subcutaneous injection with urinary hCG (10,000 IU) is administered, when at least three follicles exceed a diameter of 17 mm as measured by ultrasound scan and subsequently oocyte retrieval is performed typically 30-36 hours later.

[2] = test system: women undergoing COH and subsequent IVF and ET; test: safety and tolerability in the clinical trial of COH with subsequent IVF and ET; conditions: daily subcutaneous 2.0 mg cetrorelix without recLH
Text: as §1, §2, §3

[3] = test system: IVF-patients; test: implantation and pregnancy rates after IVF and embryo transfer following COH
Text: as §1
Prior to the first administration of recombinant FSH a blood sample is taken for hormone analysis (estradiol and LH) and a standard urinary hCG assay is performed to exclude pregnancy. Recombinant FSH treatment is started at day 2 or 3 of menses by a daily subcutaneous injection until the day of hCG administration. During the first 5 days of recombinant FSH treatment the daily dose is fixed to 150 IU. Starting at day 6, blood samples for hormone analysis are taken once every two days prior to drug administration and ultrasonographic monitoring of follicle growth is performed to adjust, if necessary, the daily injectable doses of recombinant FSH.
as §3
Oocytes are retrieved from the human females that have undergone COH as set forth in example 1. The oocytes are subsequently fertilized in vitro and two days later no more than two embryos are transferred to the uterus of the patient. […] Lower implantation and pregnancy rates are obtained in IVF-patients, in whom premature LH surges are prevented by a daily dose of 0.25 mg cetrorelix.

[4] = test system: premature endogenous LH-surge; test: Examples 1 and 2 repeated using ganirelix instead of cetrorelix; conditions: 2.0 mg ganirelix instead of 2.0 mg cetrorelix
Text: as §1, §2
A subcutaneous injection with urinary hCG (10,000 IU) is administered, when at least three follicles exceed a diameter of 17 mm as measured by ultrasound scan and subsequently oocyte retrieval is performed typically 30-36 hours later. […]

[5] = daily 2.0 mg cetrorelix without co-administered recLH

| SMILES | efficacy in preventing a premature LH-rise ([1]; compared with 0.25 mg) | effectiveness in preventing a premature LH-rise in patients with bodyweight of more than 75 kg ([1]; IVF patients undergoing COH, bodyweight more than 75 kg) | adverse effects [2] | tolerability [2] | implantation rates (rank among three treatment groups) ([3]; daily 0.25 mg cetrorelix) | pregnancy rates (rank among three treatment groups) ([3]; daily 0.25 mg cetrorelix) | implantation rates (rank among three treatment groups) [3, 5] | pregnancy rates (rank among three treatment groups) [3, 5] | results (LH-rise prevention, tolerability, implantation and pregnancy rates) compared with examples 1 and 2 [4] |
| --- | --- | --- | --- | --- | --- | --- | --- | --- | --- |
| CC(=O)N[C@H](Cc1ccc2ccccc2c1)C(=O)N[C@H](Cc1ccc(Cl)cc1)C(=O)N[C@H](Cc1cccnc1)C(=O)N[C@@H](CO)C(=O)N[C@@H](Cc1ccc(O)cc1)C(=O)N[C@H](CCCNC(N)=O)C(=O)N[C@@H](CC(C)C)C(=O)N[C@@H](CCCNC(=N)N)C(=O)N1CCC[C@H]1C(=O)N[C@H](C)C(N)=O [cetrorelix] (Ac-[d2Nal][dPhe(4-Cl)][d3Pal]SY[dCit]LRP[dA]-NH2) | more efficacious | especially apparent | no apparent adverse effects | well-tolerated | Lower | Lower | lowest | lowest | – |
| CCN=C(NCC)NCCCC[C@H](NC(=O)[C@H](CC(C)C)NC(=O)[C@@H](CCCCNC(=NCC)NCC)NC(=O)[C@H](Cc1ccc(O)cc1)NC(=O)[C@H](CO)NC(=O)[C@@H](Cc1cccnc1)NC(=O)[C@@H](Cc1ccc(Cl)cc1)NC(=O)[C@@H](Cc1ccc2ccccc2c1)NC(C)=O)C(=O)N1CCC[C@H]1C(=O)N[C@H](C)C(N)=O [ganirelix] (Ac-[d2Nal][dPhe(4-Cl)][d3Pal]SY[d(hArg(Et2))]L[hArg(Et2)]P[dA]-NH2) | – | – | – | – | – | – | – | – | very similar |

— patent publication US7815912B2, “Method of controlled ovarian hyperstimulation and pharmaceutical kit for use in such method” (Ares Trading, S.A., priority 2002, dated 2010)
